**Q.** For `COc1cc(-c2oc3ccccc3c(=O)c2C(=O)N2CCN(c3ccccn3)CC2)cc(OC)c1OC`, which melting point is on record?
**A.** Its melting point is 90 to 95 °C.

**Q.** For `Cc1cc(C)c2ncc([N+](=O)[O-])c(-c3ccccc3Cl)c2c1`, which melting point is on record?
**A.** The melting point was 130 to 131 °C.

**Q.** Which melting point does the source give for `CCCOc1nc(N)nc(-c2ccccc2)c1-c1ccc(=O)n(C(C)C)n1` here?
**A.** Its melting point is 128 to 129 °C.

**Q.** Which melting point does the source give for `N#Cc1c(-c2ccc(Cl)c(Cl)c2)[nH]c(C(F)(F)F)c1Cl` here?
**A.** The melting point was 239 to 241 °C.

**Q.** With `COc1cc2c(cc1Nc1ncc(Cl)c(Nc3cccc(OCC#N)c3)n1)CCOC(=O)N2C` as the molecule, how does the melting point read?
**A.** The melting point was 227 to 229 °C.

**Q.** With `O=C(c1ccc2[nH]ccc2c1)N1CCN(CCc2ccc([N+](=O)[O-])cc2)CC1` as the molecule, how does the melting point read?
**A.** Its melting point is 204 to 206 °C.

**Q.** Which melting point does the source give for `CCCC(=O)C1c2cccc(OC(=O)C(C)(C)C)c2C(=O)c2c(OC(=O)C(C)(C)C)cccc21` here?
**A.** Its melting point is 120 °C.

**Q.** Which melting point does the source give for `CNC(=S)C1=CC(CF)(CF)Oc2ccc(C(F)(F)C(F)(F)F)cc21` here?
**A.** Its melting point is 148 to 149 °C.

**Q.** With `CCCCN1C(=O)c2cncnc2Nc2ccccc21` as the molecule, how does the melting point read?
**A.** Its melting point is 145 to 147 °C.

**Q.** Which melting point does the source give for `O=C(O)CCP(=O)(O)CCC(=O)O` here?
**A.** The melting point was 156 to 159 °C.

**Q.** With `O=c1[nH]c2ncc(-c3ccc(-n4ccnn4)cc3)nc2n1CC1CCCCC1` as the molecule, how does the melting point read?
**A.** The melting point was 276 to 278 °C.

**Q.** With `O=c1[nH]c2cc(Br)sc2[nH]c1=O` as the molecule, how does the melting point read?
**A.** Its melting point is greater than 300 °C.

**Q.** Which melting point does the source give for `CC(C)(C)c1ccc(C2=NC[C@@H](OC(=O)Nc3ccccc3)[C@H](c3ccccc3)O2)cc1` (racemic) here?
**A.** Its melting point is 80 °C.

**Q.** For `NC(=O)C(c1ccccc1)N1C(=O)c2ccccc2C1=O` (stereo not drawn), which melting point is on record?
**A.** Its melting point is 218 °C.

**Q.** With `CN1CCN(Cc2c(-c3ccc4sc(=O)n(C)c4c3)nc3ccccn23)CC1` as the molecule, how does the melting point read?
**A.** Its melting point is 191 to 193 °C.

**Q.** With `NC(=O)n1c(S(=O)Cc2ccccn2)nc2ccccc21` (stereo not drawn) as the molecule, how does the melting point read?
**A.** Its melting point is 164 °C.

**Q.** For `COc1cccc2c1cc(SCCC(=O)O)n2C`, which melting point is on record?
**A.** The melting point was 126 to 128 °C.

**Q.** For `COc1cc2c(cc1OC)CC(NC(=O)C1CCCN1)CC2` (stereo not drawn), which melting point is on record?
**A.** Its melting point is 108 to 109 °C.

**Q.** For `O=C1N(Cc2cccnn2)c2ccccc2C12COc1cc3c(cc12)CCO3` (stereo not drawn), which melting point is on record?
**A.** The melting point was 81 to 82 °C.

**Q.** For `O=C(N[C@H]1CC[C@H](CCN2CCN(c3nccc4c3CCO4)CC2)CC1)C1(O)CCC1`, which melting point is on record?
**A.** The melting point was 178 °C.

**Q.** With `Cc1csc(NC(=O)C2=C(O)c3ccccc3N(c3ccccc3)C2)n1` as the molecule, how does the melting point read?
**A.** The melting point was 228 to 230 °C.

**Q.** Which melting point does the source give for `COc1cc2c3c(n(CCCNS(=O)(=O)c4ccccc4)c(=O)c2cc1OC)-c1ccccc1C3=O` here?
**A.** The melting point was 249 to 250 °C.

**Q.** For `CCCn1c(SC)nc2ccsc2c1=O`, which melting point is on record?
**A.** The melting point was 142 to 144 °C.

**Q.** With `O=C(c1ccc([N+](=O)[O-])cc1)N1CCN(c2ccncc2)CC1` as the molecule, how does the melting point read?
**A.** Its melting point is 158 to 160 °C.

**Q.** With `CCc1nc2c(n1C(CC)CC)C(=O)N(C)CN2c1ccc(OC)cc1Cl` as the molecule, how does the melting point read?
**A.** The melting point was 184 to 185 °C.

**Q.** For `N#Cc1ccc(N2CCC(CCO)C2)c2ccsc12` (stereo not drawn), which melting point is on record?
**A.** Its melting point is 109 to 111 °C.

**Q.** With `CCn1c(=O)c2c(nc(/C=C/c3ccc(OS(=O)(=O)C(F)(F)F)c(OC)c3)n2C)n(CC)c1=O` as the molecule, how does the melting point read?
**A.** Its melting point is 250 to 251 °C.

**Q.** Which melting point does the source give for `O=C(O)C1CCC(c2ccccc2)n2c(=O)n(CCS)c(=O)n21` (stereo not drawn) here?
**A.** The melting point was 172 to 175 °C.

**Q.** For `COC(=O)c1ccc(OCCCCCCc2ccc3cc(OCc4ccccc4)c(OCc4ccccc4)cc3c2)cc1O`, which melting point is on record?
**A.** Its melting point is 129 to 131 °C.

**Q.** For `COc1ccc(C(=O)NC(=O)N2CC2C#N)cc1` (stereo not drawn), which melting point is on record?
**A.** Its melting point is 130 to 132 °C.

**Q.** Which melting point does the source give for `COC(=O)Cc1cc(C)ccc1OCc1ccc(OCc2nc(-c3ccccc3)oc2C)cc1` here?
**A.** The melting point was 80 to 81 °C.

**Q.** With `CC1=C(c2ccccc2)C(=O)N(C(C)(C)C(O)C(C)C)CO1` (stereo not drawn) as the molecule, how does the melting point read?
**A.** Its melting point is 42 to 54 °C.

**Q.** With `CSc1nc2ccc(C)cc2c2nn(-c3ccccc3)c(=O)n12` as the molecule, how does the melting point read?
**A.** The melting point was greater than 400 °C.

**Q.** Which melting point does the source give for `O=C(Cl)COc1ccc(Cl)cc1Cl` here?
**A.** The melting point was 44 to 45 °C.

**Q.** Which melting point does the source give for `N#Cc1ccc(/C=C/S(=O)(=O)CS(=O)(=O)/C=C/c2ccc(C#N)cc2F)c(F)c1` here?
**A.** The melting point was 268 to 270 °C.

**Q.** With `CS(=O)(=O)Nc1cc2occc(=O)c2cc1Oc1ccccc1NC=O` as the molecule, how does the melting point read?
**A.** The melting point was 203 to 204 °C.

**Q.** Which melting point does the source give for `CC(=O)Nc1ccccc1OCCO` here?
**A.** The melting point was 89 to 91 °C.

**Q.** With `CN(C)C=C1C(=O)N(c2cccc(C(F)(F)F)c2)c2ccccc21` as the molecule, how does the melting point read?
**A.** Its melting point is 103 to 106 °C.

**Q.** Which melting point does the source give for `CCCCc1nc2cccc(C(=O)OC)c2n1Cc1ccc(-c2ccccc2C#N)nc1` here?
**A.** Its melting point is 155 to 156 °C.

**Q.** With `COc1cccc2c1CC1(CCCCC1)C2=O` as the molecule, how does the melting point read?
**A.** The melting point was 94 to 96 °C.

**Q.** For `COc1ccc(-n2nc(-c3ccc(OC)c(CCC(=O)O)c3OC)cc2-c2ccc(Cl)cc2)cc1`, which melting point is on record?
**A.** The melting point was 100 to 101 °C.

**Q.** Which melting point does the source give for `CC1(C)CCc2c(N3CCCC3)nc3sc4c(NCCN5CCOCC5)ncnc4c3c2C1` here?
**A.** Its melting point is 173 to 174 °C.

**Q.** For `COc1ccc2cc(NC(=O)OC(C)(C)C)ccc2c1`, which melting point is on record?
**A.** The melting point was 124 to 127 °C.

**Q.** For `O=c1[nH]c2cc(Cl)c(Cl)cc2cc1P(=O)(O)O`, which melting point is on record?
**A.** Its melting point is greater than 300 °C.

**Q.** Which melting point does the source give for `CCOC(=O)C1=Cc2cc(OC(F)(F)F)ccc2NC1C(F)(F)F` (stereo not drawn) here?
**A.** Its melting point is 123 to 125 °C.

**Q.** Which melting point does the source give for `CS(=O)c1nc(-c2ccccc2)c(-c2ccccc2)s1` (stereo not drawn) here?
**A.** The melting point was 102 to 103 °C.

**Q.** Which melting point does the source give for `Cc1cccc(Nc2ccccc2C(=O)OCc2ccccn2)c1C` here?
**A.** Its melting point is 63 to 64 °C.

**Q.** Which melting point does the source give for `O=C(O)c1ccc(Cc2ccc(-c3ccccc3-c3nnn[nH]3)cc2)c2[nH]c(OCC(F)(F)F)nc12` here?
**A.** The melting point was 204 to 206 °C.

**Q.** With `Fc1ccc(-c2[nH]cc(CCCN3CCNCC3)c2-c2ccncc2)cc1` as the molecule, how does the melting point read?
**A.** Its melting point is 162 to 164 °C.

**Q.** With `CN(C(=O)OCc1ccccc1)c1ccc(OCC(=O)N[C@@H](CC(N)=O)C(=O)N[C@@H](Cc2ccccc2)[C@H](O)C(=O)N2CCC[C@H]2C(=O)NC(C)(C)C)cc1` as the molecule, how does the melting point read?
**A.** The melting point was 98 to 100 °C.

**Q.** For `O=C(O)CCc1cn(Cc2cccc(C(=O)Nc3ccccn3)c2)nc1-c1ccccc1`, which melting point is on record?
**A.** The melting point was 187 to 188 °C.

**Q.** With `Cc1cc(-c2ncn3c(C(F)(F)F)cc(-c4ccc(C(F)(F)F)c(C(F)(F)F)c4)nc23)ccn1` as the molecule, how does the melting point read?
**A.** Its melting point is 218 °C.

**Q.** With `O=C(CN1C(=O)c2ccccc2C1=O)Nc1ccccc1Nc1ccccc1` as the molecule, how does the melting point read?
**A.** Its melting point is 191 °C.

**Q.** Which melting point does the source give for `CNN1c2c(cc(Oc3ccc(F)cc3F)c(=O)n2NC)C=NC1NC1CCOCC1` (stereo not drawn) here?
**A.** Its melting point is 80.5 to 89.9 °C.

**Q.** With `COC(=O)CCc1nsc2ccc(-n3c(=O)cc(C(F)(F)F)n(C)c3=O)cc12` as the molecule, how does the melting point read?
**A.** The melting point was 176 to 178 °C.

**Q.** For `CN1CCN(C(=O)c2cc(Oc3ccc4c(c3)CCN4C(=O)Nc3cccc(C(F)(F)F)c3)ncn2)CC1`, which melting point is on record?
**A.** The melting point was 203 to 204 °C.

**Q.** With `COc1cc(C2=C(c3cn(CCCNC(=O)C(N)CC(C)C)c4ccccc34)C(=O)NC2=O)cc(OC)c1OC` (stereo not drawn) as the molecule, how does the melting point read?
**A.** The melting point was 172 to 173 °C.

**Q.** For `CC(=O)OC(c1cccc(Cl)c1Cl)C(Cl)(Cl)C(F)(F)F` (stereo not drawn), which melting point is on record?
**A.** Its melting point is 92 to 95 °C.

**Q.** Which melting point does the source give for `O=S(CCCCCOc1ccc(C2=C(c3ccc(O)cc3)CCCc3cc(O)ccc32)cc1)CCCC(F)(F)C(F)(F)F` (stereo not drawn) here?
**A.** Its melting point is 165 to 168 °C.

**Q.** With `CS(=O)c1nnc(-c2ccc3occ(-c4cccc(OC(F)(F)F)c4)c3c2)o1` (stereo not drawn) as the molecule, how does the melting point read?
**A.** Its melting point is 98 to 99 °C.

**Q.** With `COc1cc(C=C(Cl)Cl)nc(N)n1` as the molecule, how does the melting point read?
**A.** Its melting point is 90 to 91 °C.

**Q.** With `COc1cc2c(c3c1OC(C)(C)C3)C(c1ccncc1Cl)=NC(C)(C)C2` as the molecule, how does the melting point read?
**A.** Its melting point is 126 to 128 °C.

**Q.** With `CCc1cc(CCc2nc3ccccc3o2)c(=O)[nH]c1CO` as the molecule, how does the melting point read?
**A.** The melting point was 155 to 156 °C.

**Q.** Which melting point does the source give for `COc1ccc2ncc(C#N)c(Nc3ccc(Cl)cc3F)c2c1` here?
**A.** The melting point was greater than 250 °C.

**Q.** For `CC(C)CN/C(=C1/Sc2ccccc2C1=O)c1ccccc1`, which melting point is on record?
**A.** The melting point was 125 to 126 °C.

**Q.** Which melting point does the source give for `NC(=O)c1cc(C(O)CN(Cc2ccccc2)Cc2ccccc2)cc2cc[nH]c12` (stereo not drawn) here?
**A.** The melting point was 116 to 118 °C.

**Q.** For `CC(C)(C)OC(=O)NC(=N)c1ccc(C(=O)NCCC(=O)OCc2ccccc2)cc1`, which melting point is on record?
**A.** The melting point was 127 to 128 °C.

**Q.** With `N#CCCNC(=O)Cc1c(C(=O)c2ccccc2)[nH]c2cc(Cl)ccc12` as the molecule, how does the melting point read?
**A.** Its melting point is 233 to 234 °C.
